Experimental data reported in publication PMC8217170, “Phase Ib dose-escalation study of the hypoxia-modifier Myo-inositol trispyrophosphate in patients with hepatopancreatobiliary tumors” (Nature Communications, 2021).

Test: Plasma levels and pharmacokinetics of intravenous ITPP

O=P1(O)OC2C3OP(=O)(O)OP(=O)(O)OC3C3OP(=O)(O)OP(=O)(O)OC3C2OP(=O)(O)O1 (centres unmarked) [ITPP, Myo-inositol trispyrophosphate]
Tmax (cohort 1, 1866 mg/m2): 6.0 h
VSS (cohort 1, 1866 mg/m2): 11.0 L
ITPP plasma levels: Concentration (cohort 1, patient 2, day 1, hour 0, sample 1_1_1): 0 µg/mL
ITPP plasma levels: Concentration (cohort 1, patient 2, day 1, hour 3, sample 1_1_2): 71.4 µg/mL
ITPP plasma levels: Concentration (cohort 1, patient 2, day 1, hour 6, sample 1_1_3): 64.4 µg/mL
ITPP plasma levels: Concentration (cohort 1, patient 2, day 1, hour 8.5, sample 1_1_4): 37.7 µg/mL
ITPP plasma levels: Concentration (cohort 1, patient 2, day 1, hour 9, sample 1_1_5): 27.2 µg/mL
ITPP plasma levels: Concentration (cohort 1, patient 2, day 2, hour 0, sample 1_2_1): 0 µg/mL
ITPP plasma levels: Concentration (cohort 1, patient 2, day 2, hour 9, sample 1_2_5): 31.6 µg/mL
ITPP plasma levels: Concentration (cohort 1, patient 2, day 3, hour 0, sample 1_3_1): 0 µg/mL
ITPP plasma levels: Concentration (cohort 1, patient 2, day 3, hour 9, sample 1_3_5): 28.7 µg/mL
ITPP plasma levels: Concentration (cohort 1, patient 4, day 2, hour 9, sample 5_2_5): 32.7 µg/mL
ITPP plasma levels: Concentration (cohort 1, patient 4, day 3, hour 0, sample 5_3_1): 0 µg/mL
ITPP plasma levels: Concentration (cohort 1, patient 4, day 3, hour 9, sample 5_3_5): 30.4 µg/mL
ITPP plasma levels: Concentration (cohort 1, patient 4, day 4, hour 0, sample 5_4_1): 0 µg/mL
ITPP plasma levels: Concentration (cohort 1, patient 4, day 4, hour 9, sample 5_4_5): 28.7 µg/mL
ITPP plasma levels: Concentration (cohort 1, patient 4, day 5, hour 0, sample 5_5_1): 0 µg/mL
ITPP plasma levels: Concentration (cohort 1, patient 4, day 5, hour 3, sample 5_5_2): 33.3 µg/mL
ITPP plasma levels: Concentration (cohort 1, patient 4, day 5, hour 6, sample 5_5_3): 38.4 µg/mL
ITPP plasma levels: Concentration (cohort 1, patient 4, day 5, hour 8.5, sample 5_5_4): 40.9 µg/mL
ITPP plasma levels: Concentration (cohort 1, patient 4, day 5, hour 9, sample 5_5_5): 29.6 µg/mL
ITPP plasma levels: Concentration (cohort 1, patient 4, day 5, hour 10, sample 5_5_6): 22 µg/mL
ITPP plasma levels: Concentration (cohort 1, patient 4, day 6, hour 0, sample 5_6_1): 0 µg/mL
ITPP plasma levels: Concentration (cohort 1, patient 4, day 6, hour 9, sample 5_6_5): 32.4 µg/mL
ITPP plasma levels: Concentration (cohort 1, patient 4, day 7, hour 0, sample 5_7_1): 0 µg/mL
ITPP plasma levels: Concentration (cohort 1, patient 4, day 7, hour 9, sample 5_7_5): 36.7 µg/mL
ITPP plasma levels: Concentration (cohort 1, patient 4, day 8, hour 0, sample 5_8_1): 0 µg/mL
ITPP plasma levels: Concentration (cohort 1, patient 4, day 8, hour 9, sample 5_8_5): 31.5 µg/mL
ITPP plasma levels: Concentration (cohort 1, patient 4, day 9, hour 0, sample 5_9_1): 0 µg/mL
ITPP plasma levels: Concentration (cohort 1, patient 4, day 9, hour 3, sample 5_9_2): 38.7 µg/mL
ITPP plasma levels: Concentration (cohort 1, patient 4, day 9, hour 6, sample 5_9_3): 43.5 µg/mL
ITPP plasma levels: Concentration (cohort 1, patient 4, day 9, hour 8.5, sample 5_9_4): 42.1 µg/mL
ITPP plasma levels: Concentration (cohort 1, patient 4, day 9, hour 9, sample 5_9_5): 26.1 µg/mL
AUC (cohort 2, 3732 mg/m2): 847.4 µg·h/mL
AUMC (cohort 2, 3732 mg/m2): 4925.6 h2*mg/L
CL (cohort 2, 3732 mg/m2): 3.8 L/h
Clast (cohort 2, 3732 mg/m2): 55.8 µg/mL
Cmax (cohort 2, 3732 mg/m2): 120.6 µg/mL
Cmin (cohort 2, 3732 mg/m2): 0 ng/mL
Elimination rate λz (cohort 2, 3732 mg/m2): 0.4 h⁻¹
Half life/T0.5 (cohort 2, 3732 mg/m2): 1.8 h
MRT (cohort 2, 3732 mg/m2): 1.8 h
Tlast (cohort 2, 3732 mg/m2): 10.0 h
Tmax (cohort 2, 3732 mg/m2): 6.0 h
VSS (cohort 2, 3732 mg/m2): 10.5 L
ITPP plasma levels: Concentration (cohort 2, patient 5, day 1, hour 0, sample 6_1_1): 0 µg/mL
ITPP plasma levels: Concentration (cohort 2, patient 5, day 1, hour 3, sample 6_1_2): 81 µg/mL
ITPP plasma levels: Concentration (cohort 2, patient 5, day 1, hour 6, sample 6_1_3): 102 µg/mL
ITPP plasma levels: Concentration (cohort 2, patient 5, day 1, hour 8.5, sample 6_1_4): 86.1 µg/mL
ITPP plasma levels: Concentration (cohort 2, patient 5, day 1, hour 9, sample 6_1_5): 66.5 µg/mL
ITPP plasma levels: Concentration (cohort 2, patient 5, day 1, hour 10, sample 6_1_6): 42.7 µg/mL
ITPP plasma levels: Concentration (cohort 2, patient 5, day 2, hour 0, sample 6_2_1): 0 µg/mL
ITPP plasma levels: Concentration (cohort 2, patient 5, day 2, hour 9, sample 6_2_5): 78.6 µg/mL
ITPP plasma levels: Concentration (cohort 2, patient 5, day 3, hour 0, sample 6_3_1): 0 µg/mL
ITPP plasma levels: Concentration (cohort 2, patient 5, day 3, hour 9, sample 6_3_5): 61.7 µg/mL
ITPP plasma levels: Concentration (cohort 2, patient 5, day 4, hour 0, sample 6_4_1): 0 µg/mL
ITPP plasma levels: Concentration (cohort 2, patient 5, day 4, hour 9, sample 6_4_5): 81.8 µg/mL
ITPP plasma levels: Concentration (cohort 2, patient 5, day 5, hour 0, sample 6_5_1): 0 µg/mL
ITPP plasma levels: Concentration (cohort 2, patient 5, day 5, hour 3, sample 6_5_2): 90.1 µg/mL
ITPP plasma levels: Concentration (cohort 2, patient 5, day 5, hour 6, sample 6_5_3): 107 µg/mL
ITPP plasma levels: Concentration (cohort 2, patient 5, day 5, hour 8.5, sample 6_5_4): 81.8 µg/mL
ITPP plasma levels: Concentration (cohort 2, patient 5, day 5, hour 9, sample 6_5_5): 62.8 µg/mL
ITPP plasma levels: Concentration (cohort 2, patient 5, day 5, hour 10, sample 6_5_6): 38.5 µg/mL
ITPP plasma levels: Concentration (cohort 2, patient 5, day 6, hour 0, sample 6_6_1): 0 µg/mL
ITPP plasma levels: Concentration (cohort 2, patient 5, day 6, hour 9, sample 6_6_5): 76.4 µg/mL
ITPP plasma levels: Concentration (cohort 2, patient 5, day 7, hour 0, sample 6_7_1): 0 µg/mL
ITPP plasma levels: Concentration (cohort 2, patient 5, day 7, hour 9, sample 6_7_5): 65.9 µg/mL
ITPP plasma levels: Concentration (cohort 2, patient 5, day 8, hour 0, sample 6_8_1): 0 µg/mL
ITPP plasma levels: Concentration (cohort 2, patient 5, day 8, hour 9, sample 6_8_5): 73.8 µg/mL
ITPP plasma levels: Concentration (cohort 2, patient 5, day 9, hour 0, sample 6_9_1): 0 µg/mL
ITPP plasma levels: Concentration (cohort 2, patient 5, day 9, hour 3, sample 6_9_2): 81.2 µg/mL
ITPP plasma levels: Concentration (cohort 2, patient 5, day 9, hour 6, sample 6_9_3): 110 µg/mL
ITPP plasma levels: Concentration (cohort 2, patient 5, day 9, hour 8.5, sample 6_9_4): 89.6 µg/mL
ITPP plasma levels: Concentration (cohort 2, patient 5, day 9, hour 9, sample 6_9_5): 58.7 µg/mL
ITPP plasma levels: Concentration (cohort 2, patient 6, day 1, hour 0, sample 7_1_1): 0 µg/mL
ITPP plasma levels: Concentration (cohort 2, patient 6, day 1, hour 3, sample 7_1_2): 84.8 µg/mL
ITPP plasma levels: Concentration (cohort 2, patient 6, day 1, hour 6, sample 7_1_3): 106 µg/mL
ITPP plasma levels: Concentration (cohort 2, patient 6, day 1, hour 8.5, sample 7_1_4): 100 µg/mL
ITPP plasma levels: Concentration (cohort 2, patient 6, day 1, hour 9, sample 7_1_5): 77.7 µg/mL
ITPP plasma levels: Concentration (cohort 2, patient 6, day 1, hour 10, sample 7_1_6): 55.2 µg/mL
ITPP plasma levels: Concentration (cohort 2, patient 6, day 2, hour 0, sample 7_2_1): 0 µg/mL
ITPP plasma levels: Concentration (cohort 2, patient 6, day 2, hour 9, sample 7_2_5): 66.6 µg/mL
ITPP plasma levels: Concentration (cohort 2, patient 6, day 3, hour 0, sample 7_3_1): 0 µg/mL
ITPP plasma levels: Concentration (cohort 2, patient 6, day 3, hour 9, sample 7_3_5): 65.2 µg/mL
ITPP plasma levels: Concentration (cohort 2, patient 6, day 4, hour 0, sample 7_4_1): 0 µg/mL
ITPP plasma levels: Concentration (cohort 2, patient 6, day 4, hour 9, sample 7_4_5): 67.1 µg/mL
ITPP plasma levels: Concentration (cohort 2, patient 6, day 5, hour 0, sample 7_5_1): 0 µg/mL
ITPP plasma levels: Concentration (cohort 2, patient 6, day 5, hour 3, sample 7_5_2): 78.6 µg/mL
ITPP plasma levels: Concentration (cohort 2, patient 6, day 5, hour 6, sample 7_5_3): 98 µg/mL
ITPP plasma levels: Concentration (cohort 2, patient 6, day 5, hour 8.5, sample 7_5_4): 82.7 µg/mL
ITPP plasma levels: Concentration (cohort 2, patient 6, day 5, hour 9, sample 7_5_5): 41.4 µg/mL
ITPP plasma levels: Concentration (cohort 2, patient 6, day 5, hour 10, sample 7_5_6): 40.6 µg/mL
ITPP plasma levels: Concentration (cohort 2, patient 6, day 6, hour 0, sample 7_6_1): 0 µg/mL
ITPP plasma levels: Concentration (cohort 2, patient 6, day 6, hour 9, sample 7_6_5): 60.1 µg/mL
ITPP plasma levels: Concentration (cohort 2, patient 6, day 7, hour 0, sample 7_7_1): 0 µg/mL
ITPP plasma levels: Concentration (cohort 2, patient 6, day 7, hour 9, sample 7_7_5): 72.5 µg/mL
ITPP plasma levels: Concentration (cohort 2, patient 6, day 8, hour 0, sample 7_8_1): 0 µg/mL
ITPP plasma levels: Concentration (cohort 2, patient 6, day 8, hour 9, sample 7_8_5): 75.7 µg/mL
ITPP plasma levels: Concentration (cohort 2, patient 6, day 9, hour 0, sample 7_9_1): 0 µg/mL
ITPP plasma levels: Concentration (cohort 2, patient 6, day 9, hour 3, sample 7_9_2): 84.2 µg/mL
ITPP plasma levels: Concentration (cohort 2, patient 6, day 9, hour 6, sample 7_9_3): 116 µg/mL
ITPP plasma levels: Concentration (cohort 2, patient 6, day 9, hour 8.5, sample 7_9_4): 105 µg/mL
ITPP plasma levels: Concentration (cohort 2, patient 6, day 9, hour 9, sample 7_9_5): 82 µg/mL
ITPP plasma levels: Concentration (cohort 2, patient 6, day 9, hour 10, sample 7_9_6): 60.5 µg/mL
ITPP plasma levels: Concentration (cohort 2, patient 7, day 1, hour 0, sample 8_1_1): 0 µg/mL
ITPP plasma levels: Concentration (cohort 2, patient 7, day 1, hour 3, sample 8_1_2): 81.8 µg/mL
ITPP plasma levels: Concentration (cohort 2, patient 7, day 1, hour 6, sample 8_1_3): 117 µg/mL
ITPP plasma levels: Concentration (cohort 2, patient 7, day 1, hour 8.5, sample 8_1_4): 100 µg/mL
ITPP plasma levels: Concentration (cohort 2, patient 7, day 1, hour 9, sample 8_1_5): 79.1 µg/mL
ITPP plasma levels: Concentration (cohort 2, patient 7, day 1, hour 10, sample 8_1_6): 67.7 µg/mL
